Measurements from PubChem BioAssay AID330 (DTP/NCI, 2004).
Values joined by “and” are separate entries in the source; they are usually repeats but may differ in a detail not shown here. Identical values can stand only once. Toxic doses and inconclusive results are not listed. How the source made its calls: active means survival T/C of 150% or more; inactive means T/C below 125% in these data.

Test system: P388 leukemia ip, CD2F1 mice, survival T/C
Experiment: NCI In Vivo Anticancer Drug Screen. Data for tumor model P388 Leukemia (intraperitoneal) in CD2F1 (CDF1) mice
Conditions: endpoint: median survival time, higher = longer survival
Summary of the method: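 Mice carrying the transplanted tumor received test compound or vehicle. Survival was recorded in each group, and the value is the treated-group measurement divided by that of the vehicle-treated control group.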

[1] = dose: 100.0 mg/kg/injection, schedule: Q01DX009 (ip), vehicle: saline with Tween-80
[2] = dose: 100.0 mg/kg/injection, schedule: Q04DX003 (ip), vehicle: saline with Tween-80
[3] = dose: 200.0 mg/kg/injection, schedule: Q01DX009 (ip), vehicle: saline with Tween-80
[4] = dose: 400.0 mg/kg/injection, schedule: Q01DX009 (ip), vehicle: saline with Tween-80
[5] = dose: 50.0 mg/kg/injection, schedule: Q01DX009 (ip), vehicle: saline with Tween-80
[6] = dose: 50.0 mg/kg/injection, schedule: Q01DX009 (ip), vehicle: Klucel (hydroxypropylcellulose) (HPC)
[7] = dose: 100.0 mg/kg/injection, schedule: Q01DX009 (ip), vehicle: Klucel (hydroxypropylcellulose) (HPC)
[8] = dose: 50.0 mg/kg/injection, schedule: Q01DX005 (ip), vehicle: Klucel (hydroxypropylcellulose) (HPC)
[9] = dose: 100.0 mg/kg/injection, schedule: Q01DX005 (ip), vehicle: Klucel (hydroxypropylcellulose) (HPC)
[10] = dose: 200.0 mg/kg/injection, schedule: Q01DX005 (ip), vehicle: Klucel (hydroxypropylcellulose) (HPC)
[11] = dose: 60.0 mg/kg/injection, schedule: Q01DX005 (ip), vehicle: saline with Tween-80
[12] = dose: 120.0 mg/kg/injection, schedule: Q01DX005 (ip), vehicle: saline with Tween-80
[13] = dose: 12.5 mg/kg/injection, schedule: Q01DX009 (ip), vehicle: saline
[14] = dose: 25.0 mg/kg/injection, schedule: Q01DX009 (ip), vehicle: saline
[15] = dose: 200.0 mg/kg/injection, schedule: Q01DX009 (ip), vehicle: saline
[16] = dose: 100.0 mg/kg/injection, schedule: Q04DX003 (ip), vehicle: saline

Measured: T/C

COc1ccc2nc(-c3ccccn3)ccc2c1
inactive: dose: 25.0 mg/kg/injection, schedule: Q01DX009 (ip), vehicle: distilled water + Tween-80 106 % of control | dose: 50.0 mg/kg/injection, schedule: Q01DX009 (ip), vehicle: distilled water + Tween-80 106 % of control | dose: 100.0 mg/kg/injection, schedule: Q01DX009 (ip), vehicle: distilled water + Tween-80 101 % of control | dose: 200.0 mg/kg/injection, schedule: Q01DX009 (ip), vehicle: distilled water + Tween-80 93 % of control | dose: 400.0 mg/kg/injection, schedule: Q01DX009 (ip), vehicle: distilled water + Tween-80 92 % of control

CC(C)(C)OC1CCC2=CC(=O)CCC21C (stereo not drawn)
inactive: dose: 100.0 mg/kg/injection, schedule: Q04DX002 (ip), vehicle: other 119 % of control

CN(C)C(=O)c1cccc(COc2ccc(N3C(N)=NC(N)=NC3(C)C)cc2Cl)c1
inactive: dose: 4.0 mg/kg/injection, schedule: Q01DX001 (ip), vehicle: saline 96 % of control | dose: 8.0 mg/kg/injection, schedule: Q01DX001 (ip), vehicle: saline 99 % of control | dose: 8.0 mg/kg/injection, schedule: Q01DX009 (ip), vehicle: saline 107 % of control | dose: 16.0 mg/kg/injection, schedule: Q01DX001 (ip), vehicle: saline 95 % of control | dose: 16.0 mg/kg/injection, schedule: Q01DX009 (ip), vehicle: saline 100 % of control | dose: 16.0 mg/kg/injection, schedule: Q08DX002 (ip), vehicle: saline 100 % of control | dose: 32.0 mg/kg/injection, schedule: Q01DX001 (ip), vehicle: saline 93 % of control | dose: 32.0 mg/kg/injection, schedule: Q01DX009 (ip), vehicle: saline 111 % of control | dose: 32.0 mg/kg/injection, schedule: Q08DX002 (ip), vehicle: saline 110 % of control | dose: 64.0 mg/kg/injection, schedule: Q01DX001 (ip), vehicle: saline 96 % of control

COC(=O)/C=C/N(Cc1ccccc1)Cc1ccccc1
inactive: [1] 100 % of control | [2] 95 % of control | [3] 100 % of control | dose: 200.0 mg/kg/injection, schedule: Q04DX003 (ip), vehicle: saline with Tween-80 95 % of control | [4] 100 % of control | dose: 400.0 mg/kg/injection, schedule: Q04DX003 (ip), vehicle: saline with Tween-80 95 % of control

O=C(NN(CCO)CCO)c1ccccc1
inactive: dose: 50.0 mg/kg/injection, schedule: Q01DX005 (ip), vehicle: saline with Tween-80 100 % of control | dose: 100.0 mg/kg/injection, schedule: Q01DX005 (ip), vehicle: saline with Tween-80 105 % of control | dose: 200.0 mg/kg/injection, schedule: Q01DX005 (ip), vehicle: saline with Tween-80 100 % of control

CCOC(=O)C(C(=O)OCC)c1nc[nH]c1[N+](=O)[O-]
inactive: dose: 25.0 mg/kg/injection, schedule: Q04DX003 (ip), vehicle: saline with Tween-80 108 % of control | dose: 50.0 mg/kg/injection, schedule: Q04DX003 (ip), vehicle: saline with Tween-80 104 % of control | [2] 100 % of control and 97 % of control

COc1ccc(-n2cc[n+](C)c2/C=N\O)cc1
inactive: [5] 97 % of control | [1] 98 % of control

CCOC1OCN(c2ccccc2)CC1(C)C (stereo not drawn)
inactive: [5] 115 % of control | [1] 114 % of control | [3] 108 % of control | [4] 117 % of control

COc1ccccc1C1OC2=C(Nc3ccc([N+](=O)[O-])cc3N2)C1=O (stereo not drawn)
inactive: dose: 30.0 mg/kg/injection, schedule: Q01DX005 (ip), vehicle: Klucel (hydroxypropylcellulose) (HPC) 93 % of control | dose: 60.0 mg/kg/injection, schedule: Q01DX005 (ip), vehicle: Klucel (hydroxypropylcellulose) (HPC) 92 % of control | dose: 120.0 mg/kg/injection, schedule: Q01DX005 (ip), vehicle: Klucel (hydroxypropylcellulose) (HPC) 92 % of control and 96 % of control

CCCCCCCCCCCCCCCN1CCS(=O)(=O)CC1
inactive: [6] 98 % of control | [7] 94 % of control | dose: 200.0 mg/kg/injection, schedule: Q01DX009 (ip), vehicle: Klucel (hydroxypropylcellulose) (HPC) 94 % of control

O=c1c2ccccc2nc(C(F)(F)F)n1CCc1c[nH]c2ccccc12
inactive: [8] 93 % of control | [9] 92 % of control | [10] 98 % of control

CC1=CC(=O)C(O)C2(C)C1CC1OC(=O)C(OC3OC(CO)C(O)C(O)C3O)C3C(C)C(O)C4(O)OCC13C42 (stereo not drawn)
inactive: dose: 0.25 mg/kg/injection, schedule: Q01DX005 (ip), vehicle: water 101 % of control | dose: 0.5 mg/kg/injection, schedule: Q01DX005 (ip), vehicle: water 102 % of control

Nc1nc(N)c(SC(F)(F)F)c(Cl)n1
inactive: [11] 100 % of control | [12] 103 % of control

CC1CN(C(=O)/C=C/C(=O)OC2CCCCC2)CCN1C(=O)/C=C/C(=O)OC1CCCCC1 (stereo not drawn)
inactive: [8] 100 % of control | [9] 100 % of control | [10] 98 % of control

CCn1c(=O)c2[nH]c(Cl)nc2n(C2CC2)c1=O
inactive: [6] 99 % of control | [7] 101 % of control

Cc1ccc(S(=O)(=O)NC(=O)N2CCc3ccccc32)cc1
inactive: [8] 105 % of control | [9] 105 % of control | [10] 93 % of control

O=c1nc(Oc2ccc(Cl)cc2Cl)oc2cc(Cl)ccc12
inactive: [11] 94 % of control | [12] 94 % of control

O=S1(c2ccccc2)=NP(N2CC2)(N2CC2)=NP(N2CC2)(N2CC2)=N1 (stereo not drawn)
inactive: dose: 18.75 mg/kg/injection, schedule: Q04DX003 (ip), vehicle: saline 99 % of control | dose: 37.5 mg/kg/injection, schedule: Q04DX003 (ip), vehicle: saline 93 % of control | dose: 75.0 mg/kg/injection, schedule: Q04DX003 (ip), vehicle: saline 120 % of control

COC1NC(=O)N(C(C)C)C1(C)C (stereo not drawn)
inactive: [13] 101 % of control | [14] 101 % of control | dose: 50.0 mg/kg/injection, schedule: Q01DX009 (ip), vehicle: saline 100 % of control and 97 % of control | [15] 107 % of control

COc1ccccc1C1NC(c2ccccc2OC)C2CCCC1C2=O (stereo not drawn)
inactive: [16] 88 % of control | dose: 200.0 mg/kg/injection, schedule: Q04DX003 (ip), vehicle: saline 88 % of control | dose: 400.0 mg/kg/injection, schedule: Q04DX003 (ip), vehicle: saline 90 % of control

COc1ccc2c(c1OC)C(=O)OC2C1c2cc3c(cc2CC[N+]1(C)C)OCO3 (stereo not drawn)
inactive: dose: 12.5 mg/kg/injection, schedule: Q01DX001 (ip), vehicle: Klucel (hydroxypropylcellulose) (HPC) 88 % of control | dose: 25.0 mg/kg/injection, schedule: Q01DX001 (ip), vehicle: Klucel (hydroxypropylcellulose) (HPC) 92 % of control | dose: 50.0 mg/kg/injection, schedule: Q01DX001 (ip), vehicle: Klucel (hydroxypropylcellulose) (HPC) 87 % of control

CCc1cccc(CC)c1N1C(=O)COCC1=O
inactive: dose: 6.25 mg/kg/injection, schedule: Q01DX009 (ip), vehicle: saline 96 % of control | [13] 93 % of control | [14] 92 % of control | dose: 100.0 mg/kg/injection, schedule: Q01DX009 (ip), vehicle: saline 100 % of control | [15] 100 % of control

CC(=N/N=C(N)N)/C(C)=N\Nc1ccc(Cl)cc1
inactive: dose: 25.0 mg/kg/injection, schedule: Q04DX003 (ip), vehicle: saline 101 % of control | dose: 50.0 mg/kg/injection, schedule: Q04DX003 (ip), vehicle: saline 101 % of control | [16] 108 % of control and 88 % of control
